Results as given in PubChem BioAssay (NCI).
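How tested: cells in 96-well plates exposed to compound for 48 hours at five concentrations. Abbreviation: GI50, concentration required for 50% inhibition of growth. The concentration for full growth arrest is given as TGI.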

What was measured:
Test in all cases: DTP human tumour cell line panel, 48 h
HS 578T breast = test system: HS 578T breast
OVCAR-3 ovarian = test system: OVCAR-3 ovarian
KM12 colon = test system: KM12 colon
UACC-257 melanoma = test system: UACC-257 melanoma
MCF7 breast = test system: MCF7 breast
U251 CNS = test system: U251 CNS
A498 renal = test system: A498 renal
NCI-H460 lung = test system: NCI-H460 lung
SR leukemia = test system: SR leukemia
ACHN renal = test system: ACHN renal
NCI-H522 lung = test system: NCI-H522 lung
LOX IMVI melanoma = test system: LOX IMVI melanoma
SNB-75 CNS = test system: SNB-75 CNS
UACC-62 melanoma = test system: UACC-62 melanoma
RPMI-8226 leukemia = test system: RPMI-8226 leukemia
MDA-MB-231 breast = test system: MDA-MB-231 breast
UO-31 renal = test system: UO-31 renal
M14 melanoma = test system: M14 melanoma
SW-620 colon = test system: SW-620 colon
EKVX NSCLC = test system: EKVX NSCLC
OVCAR-8 ovarian = test system: OVCAR-8 ovarian
OVCAR-5 ovarian = test system: OVCAR-5 ovarian
SF-539 CNS = test system: SF-539 CNS
OVCAR-4 ovarian = test system: OVCAR-4 ovarian
SK-MEL-28 melanoma = test system: SK-MEL-28 melanoma
RXF 393 renal = test system: RXF 393 renal
PC-3 prostate = test system: PC-3 prostate
CAKI-1 renal = test system: CAKI-1 renal
HOP-92 NSCLC = test system: HOP-92 NSCLC
HCT-116 colon = test system: HCT-116 colon
MDA-N = test system: MDA-N
HT29 colon = test system: HT29 colon
SN12C renal = test system: SN12C renal
HCT-15 colon = test system: HCT-15 colon
786-0 renal = test system: 786-0 renal
HCC-2998 colon = test system: HCC-2998 colon
TK-10 renal = test system: TK-10 renal
K-562 leukemia = test system: K-562 leukemia
CCRF-CEM leukemia = test system: CCRF-CEM leukemia
COLO 205 colon = test system: COLO 205 colon
SNB-19 CNS = test system: SNB-19 CNS
HL-60(TB) leukemia = test system: HL-60(TB) leukemia
MOLT-4 leukemia = test system: MOLT-4 leukemia
NCI-H226 lung = test system: NCI-H226 lung
SK-MEL-2 melanoma = test system: SK-MEL-2 melanoma
T-47D breast = test system: T-47D breast
BT-549 breast = test system: BT-549 breast
MALME-3M melanoma = test system: MALME-3M melanoma
HOP-62 NSCLC = test system: HOP-62 NSCLC
A549 NSCLC = test system: A549 NSCLC
NCI-H23 lung = test system: NCI-H23 lung
IGROV1 ovarian = test system: IGROV1 ovarian
SK-MEL-5 melanoma = test system: SK-MEL-5 melanoma
SF-268 CNS = test system: SF-268 CNS
NCI/ADR-RES ovarian = test system: NCI/ADR-RES ovarian
SF-295 CNS = test system: SF-295 CNS
MDA-MB-435 = test system: MDA-MB-435
DU-145 prostate = test system: DU-145 prostate
M19-MEL melanoma = test system: M19-MEL melanoma
SNB-78 CNS = test system: SNB-78 CNS
KM20L2 colon = test system: KM20L2 colon
LXFL 529 NSCLC = test system: LXFL 529 NSCLC
SK-OV-3 ovarian = test system: SK-OV-3 ovarian
DLD-1 colon = test system: DLD-1 colon

SMILES: CCCCON1C[C@@H](O)C(O)[C@@H](O)C1 (stereo not given in full)
- TGI (HS 578T breast): > 100 µM
- TGI (OVCAR-3 ovarian): > 100 µM
- TGI (KM12 colon): > 100 µM
- TGI (UACC-257 melanoma): > 100 µM
- TGI (MCF7 breast): > 100 µM
- TGI (U251 CNS): > 100 µM
- TGI (A498 renal): > 100 µM
- TGI (NCI-H460 lung): > 100 µM
- TGI (SR leukemia): > 100 µM
- TGI (ACHN renal): > 100 µM
- TGI (NCI-H522 lung): > 100 µM
- TGI (LOX IMVI melanoma): > 100 µM
- TGI (SNB-75 CNS): > 100 µM
- TGI (UACC-62 melanoma): > 100 µM
- TGI (RPMI-8226 leukemia): > 100 µM
- TGI (MDA-MB-231 breast): > 100 µM
- TGI (UO-31 renal): > 100 µM
- TGI (M14 melanoma): > 100 µM
- TGI (SW-620 colon): > 100 µM
- TGI (EKVX NSCLC): > 100 µM
- TGI (OVCAR-8 ovarian): > 100 µM
- TGI (OVCAR-5 ovarian): > 100 µM
- TGI (SF-539 CNS): > 100 µM
- TGI (OVCAR-4 ovarian): > 100 µM
- TGI (SK-MEL-28 melanoma): > 100 µM
- TGI (RXF 393 renal): > 100 µM
- TGI (PC-3 prostate): > 100 µM
- TGI (CAKI-1 renal): > 100 µM
- TGI (HOP-92 NSCLC): > 100 µM
- TGI (HCT-116 colon): > 100 µM
- TGI (MDA-N): > 100 µM
- TGI (HT29 colon): > 100 µM
- TGI (SN12C renal): > 100 µM
- TGI (HCT-15 colon): > 100 µM
- TGI (786-0 renal): > 100 µM
- TGI (HCC-2998 colon): > 100 µM
- TGI (TK-10 renal): > 100 µM
- TGI (K-562 leukemia): > 100 µM
- TGI (CCRF-CEM leukemia): > 100 µM
- TGI (COLO 205 colon): > 100 µM
- TGI (SNB-19 CNS): > 100 µM
- TGI (HL-60(TB) leukemia): > 100 µM
- TGI (MOLT-4 leukemia): > 100 µM
- TGI (NCI-H226 lung): > 100 µM
- TGI (SK-MEL-2 melanoma): > 100 µM
- TGI (T-47D breast): > 100 µM
- TGI (BT-549 breast): > 100 µM
- TGI (MALME-3M melanoma): > 100 µM
- TGI (HOP-62 NSCLC): > 100 µM
- TGI (A549 NSCLC): > 100 µM
- TGI (NCI-H23 lung): > 100 µM
- TGI (IGROV1 ovarian): > 100 µM
- TGI (SK-MEL-5 melanoma): > 100 µM
- TGI (SF-268 CNS): > 100 µM
- TGI (NCI/ADR-RES ovarian): > 100 µM
- TGI (SF-295 CNS): > 100 µM
- TGI (MDA-MB-435): > 100 µM
- TGI (DU-145 prostate): > 100 µM

SMILES: O=S(=O)(O)O.[NH-]C1CCCCC1[NH-].[Pt+2] (stereo not given)
- GI50 (M19-MEL melanoma): > 100 µM
- TGI (M19-MEL melanoma): > 100 µM
- GI50 (OVCAR-3 ovarian): > 100 µM
- TGI (OVCAR-3 ovarian): > 100 µM
- GI50 (KM12 colon): > 100 µM
- TGI (KM12 colon): > 100 µM
- GI50 (UACC-257 melanoma): > 100 µM
- TGI (UACC-257 melanoma): > 100 µM
- GI50 (U251 CNS): > 100 µM
- TGI (U251 CNS): > 100 µM
- GI50 (SNB-78 CNS): > 100 µM
- TGI (SNB-78 CNS): > 100 µM
- GI50 (A498 renal): 32.3 µM
- TGI (A498 renal): > 100 µM
- GI50 (NCI-H460 lung): 41 µM
- TGI (NCI-H460 lung): > 100 µM
- GI50 (KM20L2 colon): 35.8 µM
- TGI (KM20L2 colon): > 100 µM
- GI50 (ACHN renal): 47.8 µM
- TGI (ACHN renal): > 100 µM
- GI50 (NCI-H522 lung): 23.6 µM
- TGI (NCI-H522 lung): > 100 µM
- GI50 (LOX IMVI melanoma): > 100 µM
- TGI (LOX IMVI melanoma): > 100 µM
- GI50 (SNB-75 CNS): 0.722 µM
- TGI (SNB-75 CNS): 61.5 µM
- GI50 (LXFL 529 NSCLC): > 100 µM
- TGI (LXFL 529 NSCLC): > 100 µM
- GI50 (UACC-62 melanoma): > 100 µM
- TGI (UACC-62 melanoma): > 100 µM
- GI50 (RPMI-8226 leukemia): 48.6 µM
- TGI (RPMI-8226 leukemia): > 100 µM
- GI50 (UO-31 renal): > 100 µM
- TGI (UO-31 renal): > 100 µM
- GI50 (M14 melanoma): > 100 µM
- TGI (M14 melanoma): > 100 µM
- GI50 (SW-620 colon): 5.33 µM
- TGI (SW-620 colon): > 100 µM
- GI50 (EKVX NSCLC): > 100 µM
- TGI (EKVX NSCLC): > 100 µM
- GI50 (OVCAR-8 ovarian): 80.1 µM
- TGI (OVCAR-8 ovarian): > 100 µM
- GI50 (OVCAR-5 ovarian): > 100 µM
- TGI (OVCAR-5 ovarian): > 100 µM
- GI50 (SF-539 CNS): > 100 µM
- TGI (SF-539 CNS): > 100 µM
- GI50 (OVCAR-4 ovarian): 67.2 µM
- TGI (OVCAR-4 ovarian): > 100 µM
- GI50 (SK-MEL-28 melanoma): > 100 µM
- TGI (SK-MEL-28 melanoma): > 100 µM
- GI50 (SK-OV-3 ovarian): > 100 µM
- TGI (SK-OV-3 ovarian): > 100 µM
- GI50 (RXF 393 renal): > 100 µM
- TGI (RXF 393 renal): > 100 µM
- GI50 (HOP-92 NSCLC): 56.7 µM
- TGI (HOP-92 NSCLC): > 100 µM
- GI50 (HCT-116 colon): 43.4 µM
- TGI (HCT-116 colon): > 100 µM
- GI50 (HT29 colon): 63.1 µM
- TGI (HT29 colon): > 100 µM
- GI50 (SN12C renal): > 100 µM
- TGI (SN12C renal): > 100 µM
- GI50 (HCT-15 colon): 61.5 µM
- TGI (HCT-15 colon): > 100 µM
- GI50 (786-0 renal): 40.7 µM
- TGI (786-0 renal): > 100 µM
- GI50 (HCC-2998 colon): > 100 µM
- TGI (HCC-2998 colon): > 100 µM
- GI50 (TK-10 renal): > 100 µM
- TGI (TK-10 renal): > 100 µM
- GI50 (DLD-1 colon): 27.8 µM
- TGI (DLD-1 colon): > 100 µM
- GI50 (K-562 leukemia): 37 µM
- TGI (K-562 leukemia): > 100 µM
- GI50 (CCRF-CEM leukemia): 17.6 µM
- TGI (CCRF-CEM leukemia): > 100 µM
- GI50 (COLO 205 colon): > 100 µM
- TGI (COLO 205 colon): > 100 µM
- GI50 (SNB-19 CNS): > 100 µM
- TGI (SNB-19 CNS): > 100 µM
- GI50 (HL-60(TB) leukemia): 19.3 µM
- TGI (HL-60(TB) leukemia): > 100 µM
- GI50 (MOLT-4 leukemia): 8.95 µM
- TGI (MOLT-4 leukemia): > 100 µM
- GI50 (SK-MEL-2 melanoma): > 100 µM
- TGI (SK-MEL-2 melanoma): > 100 µM
- GI50 (MALME-3M melanoma): 50.2 µM
- TGI (MALME-3M melanoma): > 100 µM
- GI50 (HOP-62 NSCLC): > 100 µM
- TGI (HOP-62 NSCLC): > 100 µM
- GI50 (A549 NSCLC): 80.4 µM
- TGI (A549 NSCLC): > 100 µM
- GI50 (NCI-H23 lung): > 100 µM
- TGI (NCI-H23 lung): > 100 µM
- GI50 (IGROV1 ovarian): > 100 µM
- TGI (IGROV1 ovarian): > 100 µM
- GI50 (SK-MEL-5 melanoma): 42.3 µM
- TGI (SK-MEL-5 melanoma): > 100 µM
- GI50 (SF-268 CNS): > 100 µM
- TGI (SF-268 CNS): > 100 µM
- GI50 (SF-295 CNS): > 100 µM
- TGI (SF-295 CNS): > 100 µM
